Consider one sequence from US6503759B1, “Complex combinatorial chemical libraries encoded with tags” (The Trustees of Columbia University in the City of New York, priority 1992, dated 2003).

This assay concerns anti-C-myc peptide monoclonal antibody 9E10. The assay can be described thus: bead staining test for binding to anti-C-myc monoclonal antibody 9E10. Particulars: bead-bound peptides of the 117,649 peptide library; 1:200 dilution of 9E10 ascites fluid; alkaline phosphatase-coupled goat antimouse IgG colour detection; sequence read from tags. The procedure: The anti-C-myc peptide monoclonal antibody 9E10 was prepared from ascites fluid as described in Evans et al., Mol. Cell Biol., 5, 3610-3616 (1985) and Munro and Pelham, Cell, 48, 899-907 (1987). To test beads for binding to 9E10, beads were incubated in TBST [20 mM Tris-HCl (pH 7.5), 500 mM NaCl and 0.05% Tween-20] containing 1% bovine serum albumin (BSA) to block non-specific protein binding sites. The beads were then centrifuged, resuspended in a 1:200 dilution of 9E10 ascites fluid in TBST+1% BSA and incubated overnight at 4° C. Beads were subsequently washed three times in TBST and incubated for 90 min. at room temperature in alkaline phosphatase-coupled goat antimouse IgG antibodies (Bio-Rad Laboratories), diluted 1:3000 in TBST+1% BSA. After washing the beads twice in TBST and once in phosphatase buffer (100 mM Tris-HCl, pH 9.5, 100 mM NaCl and 5 mM MgCl2), the beads were incubated 1 hr at room temperature in phosphatase buffer containing one one-hundredth part each of AP Color Reagents A & B (Bio-Rad Laboratories). To stop the reaction, the beads were washed twice in 20 mM sodium EDTA, pH 7.4. Solution phase affinities between 9E10 and various peptides were determined by a modification of the competitive ELISA assay described by Harlow et al., Antibodies: a Laboratory Manual, 570-573, Cold Spring Harbor Press, Cold Spring Harbor, N.Y.

For the sequence EQKLISEEDL, the “beads stained on exposure to the anti-C-myc monoclonal antibody” value was “stained”.
